Laboratory results from ChEMBL document CHEMBL1136588, “Exploring new non-sugar sulfated molecules as activators of antithrombin” (Bioorg Med Chem Lett, 2003).

Key:
Coagulation factor X [1] = biological target: T1, Coagulation factor X (Homo sapiens, UniProt P00742); assay: Inhibitory activity against Plasma coagulation enzyme factor Xa; Value expressed as k Act/k UNCAT (uncatalyzed); type: cell-free
Coagulation factor X [2] = biological target: T1, Coagulation factor X; assay: Equilibrium dissociation constant of factor Xa inhibition
Coagulation factor X [3] = biological target: T1, Coagulation factor X; assay: Second-order rate constant of factor Xa inhibition

T1 sequence (P00742 41-179 limits assumed): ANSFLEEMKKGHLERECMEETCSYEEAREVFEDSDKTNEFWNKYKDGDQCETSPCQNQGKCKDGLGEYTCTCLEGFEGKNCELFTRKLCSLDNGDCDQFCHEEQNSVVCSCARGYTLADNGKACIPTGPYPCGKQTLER
T1 sequence (P00742 235-488 limits assumed): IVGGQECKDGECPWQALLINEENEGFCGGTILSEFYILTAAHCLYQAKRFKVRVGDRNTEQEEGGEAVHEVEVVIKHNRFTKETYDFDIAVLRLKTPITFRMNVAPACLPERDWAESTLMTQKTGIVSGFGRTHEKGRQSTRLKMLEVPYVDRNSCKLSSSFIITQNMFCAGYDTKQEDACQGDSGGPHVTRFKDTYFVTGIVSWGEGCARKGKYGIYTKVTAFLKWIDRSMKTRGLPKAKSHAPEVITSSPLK

Compound | Acceleration (Coagulation factor X [1]) | Kd (Coagulation factor X [2]) | k act (Coagulation factor X [3])
O=c1c(OS(=O)(=O)O)c(-c2ccc(OS(=O)(=O)O)c(OS(=O)(=O)O)c2)oc2cc(OS(=O)(=O)O)cc(OS(=O)(=O)O)c12 | 17.5 | 17 µM | 5700 M⁻¹ s⁻¹
O=c1c(OS(=O)(=O)O)c(-c2ccc(OS(=O)(=O)O)cc2OS(=O)(=O)O)oc2cc(OS(=O)(=O)O)cc(OS(=O)(=O)O)c12 | 21.8 | 1.8 µM | 7100 M⁻¹ s⁻¹
CO[C@@H]1O[C@@H](C(=O)O)[C@@H](O[C@H]2OC(COS(=O)(=O)O)=C[C@H](OS(=O)(=O)O)[C@H]2NS(=O)(=O)O)[C@H](O)[C@H]1OS(=O)(=O)O | 19.7 | 95 µM | 6400 M⁻¹ s⁻¹
CO[C@H]1O[C@H](COS(=O)(=O)O)[C@@H](O[C@@H]2O[C@H](C(=O)O)[C@@H](O[C@H]3O[C@H](COS(=O)(=O)O)[C@@H](O)[C@H](O)[C@H]3NS(=O)(=O)O)[C@H](O)[C@H]2O)[C@H](OS(=O)(=O)O)[C@H]1NS(=O)(=O)O | 320 | 2 µM | 45000 M⁻¹ s⁻¹

The next lines start with the values.

Acceleration (Coagulation factor X [1]) | Kd (Coagulation factor X [2]) | k act (Coagulation factor X [3]) | Compound
20.8 | 3.5 µM | 6750 M⁻¹ s⁻¹ | O=S(=O)(O)Oc1cc2c(c(OS(=O)(=O)O)c1)C[C@@H](OS(=O)(=O)O)[C@H](c1ccc(OS(=O)(=O)O)c(OS(=O)(=O)O)c1)O2
10.4 | 10.7 µM | 3380 M⁻¹ s⁻¹ | O=S(=O)(O)Oc1cc2c(c(OS(=O)(=O)O)c1)C[C@H](OS(=O)(=O)O)[C@H](c1ccc(OS(=O)(=O)O)c(OS(=O)(=O)O)c1)O2
8.5 | 26.1 µM | 2770 M⁻¹ s⁻¹ | O=S(=O)(O)Oc1cc2c(c(OS(=O)(=O)O)c1)CC(OS(=O)(=O)O)C(c1ccc(OS(=O)(=O)O)c(OS(=O)(=O)O)c1)O2 (stereo unspecified)
